Data as given in ChEMBL document CHEMBL4406844, “Single-molecule chemiluminescent photosensitizer for a self-activating and tumor-selective photodynamic therapy of cancer” (Eur J Med Chem, 2019).
Calls of active or inactive are those of the source. No cut-off for these calls is given here.

Legend:
[1] = Induction of singlet oxygen production in acetate buffer assessed as ABDA florescence quenching by spectrofluorimetry; format: functional
[2] = Induction of singlet production in acetate buffer using chemiluminescent substrate by spectrofluorimetry; format: functional
MCF7 [3] = test: Cytotoxicity against human MCF7 cells assessed as reduction in cell viability at 0.1 to 100 uM incubated for 24 hrs by MTT assay; format: functional, cell-based
[4] = Induction of singlet production in methanol in presence of potassium superoxide using chemiluminescent substrate by spectrofluorimetry; format: functional
[5] = Induction of singlet production in methanol in presence of potassium superoxide using chemiluminescent substrate incubated for 30 mins in liquid nitrogen temperature by spectrofluorimetry; format: functional
MCF-10A = test: Cytotoxicity against human MCF10A cells assessed as reduction in cell viability at 0.1 to 100 uM incubated for 24 hrs by MTT assay; format: cell-based
[6] = Induction of singlet oxygen production in methanol assessed as ABDA florescence quenching in presence of potassium superoxide by spectrofluorimetry; format: functional
MCF7 [7] = test: Cytotoxicity against human MCF7 cells assessed as reduction in cell viability at 0.1 uM incubated for 24 hrs by MTT assay; format: functional, cell-based
[8] = Induction of singlet production in methanol in presence of potassium superoxide using chemiluminescent substrate incubated for 30 mins in N2-bubbling by spectrofluorimetry relative to control; format: functional
PC-3 [9] = test: Cytotoxicity against human PC3 cells assessed as reduction in cell viability at >75 uM incubated for 24 hrs by MTT assay relative to control; format: functional
PC-3 [10] = test: Cytotoxicity against human PC3 cells assessed as reduction in cell viability at 0.1 to 100 uM incubated for 24 hrs by MTT assay; format: functional, cell-based
[11] = Induction of singlet oxygen production in methanol assessed as ABDA florescence quenching by spectrofluorimetry; format: functional

| Compound | Activity [2] | Activity (MCF7 [3]) | Activity [8] | Activity (PC-3 [10]) | further results |
| --- | --- | --- | --- | --- | --- |
| CC(=O)Nc1cnc(Br)cn1 | Active |  |  |  | Activity [1]: Active |
| CC/C(=C(\c1ccccc1)c1ccc(OCCN(C)C)cc1)c1ccccc1 |  | Active |  |  |  |
| Cc1nc2c[nH]c(-c3ccc(Br)cc3)cn-2c1=O |  |  | Active |  | Activity [4]: Active; Activity [5]: Active; Activity (MCF-10A): Non-Toxic; Activity [6]: Active; Activity (MCF7 [7]): Active; Activity (PC-3 [9]): >50% |
| CN(C)C(=N)NC(=N)N |  |  |  | Active |  |
| O=c1c(Cc2ccc(O)cc2)nc2c(Cc3ccccc3)[nH]c(-c3ccc(O)cc3)cn1-2 | Active | inactive | inactive | Active | Activity [11]: inactive |
